Assay: Solubility in 100 g of water at 20° C.

CC(CO)(CO)CO [trimethylolethane]
solubility: approximately 60 g/100 g of water

— US12503617B2, “Ink jet ink composition and recording method” (SEIKO EPSON CORPORATION, priority 2022, dated 2025)
